Assays:
Assay in all cases: relative viability (nuclei count vs DMSO), 5 days (fraction); higher = more cells survive
Fedratinib + Bortezomib = compound: Cc1cnc(Nc2ccc(OCCN3CCCC3)cc2)nc1Nc1cccc(S(=O)(=O)NC(C)(C)C)c1 [Fedratinib] + CC(C)C[C@H](NC(=O)[C@H](Cc1ccccc1)NC(=O)c1cnccn1)B(O)O [Bortezomib] (partner 0.002 µM)
How it was run: (§1)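 Dosing by pin tool came one day after lung cancer cell lines were seeded in 1536-well plates, using either one drug or a fixed anchor-drug dose plus five library-drug doses (not always all listed) in √10 steps. After 5 days, nuclei were counted on 4× images. Relative viability is treated-well nuclei count divided by vehicle-well nuclei count, and values are medians of duplicate plates.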

Fedratinib + Vorinostat = compound: Cc1cnc(Nc2ccc(OCCN3CCCC3)cc2)nc1Nc1cccc(S(=O)(=O)NC(C)(C)C)c1 [Fedratinib] + O=C(CCCCCCC(=O)Nc1ccccc1)NO [Vorinostat] (partner 1 µM)
How it was run: as §1

GW-2580 + Crizotinib = compound: COC1=CC=C(C=C1)COC2=C(C=C(C=C2)CC3=CN=C(N=C3N)N)OC [GW-2580] + C[C@@H](Oc1cc(-c2cnn(C3CCNCC3)c2)cnc1N)c1c(Cl)ccc(F)c1Cl [Crizotinib] (partner 1 µM)
How it was run: as §1

Fedratinib + Lapatinib = compound: Cc1cnc(Nc2ccc(OCCN3CCCC3)cc2)nc1Nc1cccc(S(=O)(=O)NC(C)(C)C)c1 [Fedratinib] + CS(=O)(=O)CCNCc1ccc(-c2ccc3ncnc(Nc4ccc(OCc5cccc(F)c5)c(Cl)c4)c3c2)o1 [Lapatinib] (partner 2 µM)
How it was run: as §1

GW-2580 + Foretinib = compound: COC1=CC=C(C=C1)COC2=C(C=C(C=C2)CC3=CN=C(N=C3N)N)OC [GW-2580] + COc1cc2c(Oc3ccc(NC(=O)C4(C(=O)Nc5ccc(F)cc5)CC4)cc3F)ccnc2cc1OCCCN1CCOCC1 [Foretinib] (partner 0.25 µM)
How it was run: as §1

Row | Cell Line | relative viability (Fedratinib + Bortezomib; first compound 0.1 µM) | relative viability (Fedratinib + Bortezomib; first compound 0.3162 µM) | relative viability (Fedratinib + Bortezomib; first compound 1 µM) | relative viability (Fedratinib + Vorinostat; first compound 0.1 µM) | relative viability (Fedratinib + Vorinostat; first compound 0.3162 µM) | relative viability (Fedratinib + Vorinostat; first compound 1 µM) | relative viability (GW-2580 + Crizotinib; first compound 0.08 µM) | relative viability (GW-2580 + Crizotinib; first compound 0.8 µM) | relative viability (GW-2580 + Crizotinib; first compound 2.53 µM) | relative viability (GW-2580 + Crizotinib; first compound 8 µM) | relative viability (Fedratinib + Lapatinib; first compound 0.1 µM) | relative viability (Fedratinib + Lapatinib; first compound 0.3162 µM) | relative viability (Fedratinib + Lapatinib; first compound 1 µM) | relative viability (GW-2580 + Foretinib; first compound 0.08 µM) | relative viability (GW-2580 + Foretinib; first compound 0.8 µM) | relative viability (GW-2580 + Foretinib; first compound 2.53 µM) | relative viability (GW-2580 + Foretinib; first compound 8 µM)
1 | 201T | 1.01 | 1.07 | 1.08 | 0.935 | 0.975 | 0.955 | 1.04 | 1.06 | 1.07 | 0.993 | 1.01 | 0.944 | 0.976 | 1.09 | 1.1 | 1.24 | 1.13
2 | A549 |  |  |  |  |  |  | 0.722 | 0.878 | 0.737 | 0.543 | 1.16 | 0.907 | 0.875 | 1.01 | 0.577 | 1.06 | 0.902
3 | A-427 | 0.95 | 0.889 | 0.558 | 0.873 | 0.792 | 0.781 | 0.926 | 1.07 | 0.785 | 0.663 | 1.06 | 0.984 | 0.591 | 1.1 | 1.14 | 0.892 | 1.01
4 | ABC-1 | 0.339 | 0.363 | 0.186 | 0.983 | 1.06 | 0.888 | 1.1 | 1.3 | 0.901 | 0.783 | 1.28 | 1.16 | 1.46 | 1.09 | 1.16 | 0.931 | 0.86
5 | BEN | 0.673 | 0.607 | 0.559 | 0.544 | 0.577 | 0.55 | 0.937 | 1 | 0.785 | 0.958 | 0.665 | 0.585 | 0.543 | 0.61 | 0.731 | 0.406 | 0.674
6 | CAL-12T | 0.963 | 1.07 | 0.805 | 0.747 | 0.84 | 0.681 | 0.632 |  | 0.59 | 0.577 | 0.688 | 0.698 | 0.607 | 1.2 | 1.25 | 1.11 | 1.06
7 | COR-L23 | 1.14 | 0.975 | 0.938 | 0.407 | 0.487 | 0.392 | 0.808 | 0.684 | 0.549 | 0.562 | 1.04 | 0.999 | 1.07 | 1.12 | 1.15 | 1.09 | 0.882
8 | COR-L 105 | 0.685 | 0.839 | 0.289 | 0.825 | 0.904 | 0.676 | 0.782 | 0.827 | 0.787 | 0.677 | 0.297 | 0.379 | 0.336 | 1.09 | 1.19 | 1.05 | 0.993
9 | Calu-6 | 1.05 | 0.981 | 0.771 |  |  |  | 0.85 | 0.857 | 0.769 | 0.674 | 1.29 | 1 | 0.945 | 0.866 | 0.898 | 0.915 | 0.858
10 | ChaGo-K-1 | 0.932 | 1.1 | 0.777 | 0.74 | 0.757 | 0.718 | 1.08 | 1.21 | 1.18 | 1.07 |  |  |  | 0.994 | 0.965 | 0.924 | 0.881
11 | EBC-1 | 0.478 | 0.501 | 0.39 |  |  |  | 0.205 | 0.163 | 0.19 | 0.164 | 0.175 | 0.193 | 0.177 | 0.0973 | 0.114 | 0.107 | 0.0908
12 | EKVX | 1.11 | 1.11 | 1.06 | 0.736 | 0.737 | 0.728 | 1.09 | 1.52 | 0.979 | 0.935 | 0.209 | 0.206 | 0.252 | 0.971 | 1.11 | 0.726 | 0.779
13 | EMC-BAC-2 | 1.14 | 1.01 | 1.09 | 0.418 | 0.566 | 0.317 | 0.779 | 0.771 | 0.75 | 0.803 | 1 | 0.901 | 0.909 | 1.13 | 1.11 | 1.04 | 0.865
14 | EPLC-272H | 0.946 | 0.83 | 0.451 | 0.547 | 0.375 | 0.335 | 0.831 | 1.13 | 0.954 | 0.904 | 0.958 | 1.01 | 0.119 | 0.73 | 0.766 |  | 0.605
15 | H3255 | 0.63 | 0.742 | 0.605 | 0.84 | 0.876 | 0.696 | 0.837 | 0.963 | 0.744 | 0.914 | 0.216 | 0.231 | 0.218 | 0.859 | 0.835 | 0.742 | 0.829
16 | HARA | 1.41 | 1.18 | 0.404 | 0.512 | 0.629 | 0.51 | 1.15 | 1.05 | 1.12 | 0.939 | 0.75 | 0.627 | 0.384 | 1.06 | 0.849 | 1.03 | 0.676
